Assay results: patent US10449182B2 (The Regents of the University of California, priority 2012, dated 2019)

Tests used:
[1] = target: T1, human sEH (Homo sapiens, UniProt P34913); experiment: Inhibitory activity against human sEH; type: biochemical; conditions: read-out: % Inhibition (IC50) Human sEH
T1 sequence (P34913 1-555): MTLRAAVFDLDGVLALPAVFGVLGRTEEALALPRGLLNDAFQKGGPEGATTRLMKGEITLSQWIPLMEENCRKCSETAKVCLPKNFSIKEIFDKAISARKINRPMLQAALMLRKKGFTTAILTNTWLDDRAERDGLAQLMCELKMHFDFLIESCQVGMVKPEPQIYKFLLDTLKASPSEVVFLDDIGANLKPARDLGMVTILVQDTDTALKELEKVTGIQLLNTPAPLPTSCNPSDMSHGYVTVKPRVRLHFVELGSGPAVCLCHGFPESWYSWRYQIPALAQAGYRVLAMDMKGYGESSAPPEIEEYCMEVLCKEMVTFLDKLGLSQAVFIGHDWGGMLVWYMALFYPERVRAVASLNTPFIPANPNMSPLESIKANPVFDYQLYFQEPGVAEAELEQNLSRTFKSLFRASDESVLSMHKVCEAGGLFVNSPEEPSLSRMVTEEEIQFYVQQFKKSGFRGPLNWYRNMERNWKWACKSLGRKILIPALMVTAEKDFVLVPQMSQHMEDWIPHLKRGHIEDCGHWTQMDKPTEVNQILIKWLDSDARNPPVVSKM

[2] = system: p21; experiment: p21 levels by immunoblotting in ACHN and/or 786-O cells; type: cell-based, human; conditions: 24 h of culture with compound, immunoblot; note: key: + denotes inhibition of p21 secretion or the absence of p21; − denotes the presence of p21
Method: Cells harvested after growth to confluence in 10% serum-containing media and treatment with compounds of the invention were washed with phosphate buffered saline (PBS) and lysed in lysis buffer composed of 50 mM HEPES, 1% Triton X-100, 10 mM sodium pyrophosphate, 100 mM sodium fluoride and 4 mM EDTA at 4° C. Cell lysates were pelleted. Supernatants were electrophoresed and immunoblotted. Membranes were blocked in 5% nonfat dry milk for 30 min at room temperature and probed with p21 antibody. Membranes were then probed with horseradish peroxidase tagged anti-mouse or anti-rabbit IgG antibodies (diluted 3:20,000 and 3:10,000 in 5% nonfat dry milk, respectively) for 2 h at room temperature. Signal was detected using enhanced chemiluminescence (ECL) solutions.

[3] = system: p21; conditions: Inoue et al. (2011) Cancer Biol. Ther.; cited from earlier work
[4] = system: p21; experiment: Immunoblotting of p21 and other proteins in normal kidney and cancer cells (FIG. 2); type: cell-based, human; conditions: HK2, 786-O, Caki-1, ACHN and Hey cells, 24 h, immunoblot
Method: FIG. 2. […] The cells were harvested and immunoblotted with the antibodies indicated. (A) p21 and (B) p-Akt, p-ERK, t-Akt, t-ERK and p53 proteins are shown. β-actin is a loading control for each membrane. The experiment shown is representative of at least 3 separate experiments.
(§1) Immunoblotting was performed as previously described.^19 Briefly, after appropriate treatments, the cells were washed with phosphate buffered saline (PBS) and lysed in lysis buffer. Cell lysates were immunoblotted. Membranes were blocked in 5% nonfat dry milk for one hour at room temperature and probed with appropriate antibodies. Membranes were then probed with horseradish peroxidase tagged anti-mouse or anti-rabbit IgG antibodies. Signal was detected using ECL solutions.

[5] = system: NCI60 cell lines; experiment: Cell viability TCA assay in NCI60 cell lines (FIG. 4); type: cell-based, human; conditions: 48 h
Method: FIGS. 4A, 4B & 4C. […] TCA assay was conducted in the NCI60 cell lines treated with Compound 2288 as described in the Materials and Methods. Compound 2288 inhibited various cancer cell growth.
TCA assay was conducted by NCI Developmental Therapeutics Program. Briefly, cells were plated in 96-well plates, and after appropriate treatments, the plates are incubated for an additional 48 h at 37° C., 5% CO2. 95% air, and 100% relative humidity. The assay was terminated by the addition of cold TCA. Cells were fixed by the addition of 50 μl of cold 50% (w/v) TCA (final concentration, 10% TCA) and incubated for 60 minutes at 4° C. The plates were washed water and air dried. Sulforhodamine B (SRB) solution (100 μl) at 0.4% (w/v) in 1% acetic acid was added to each well, and plates were incubated for 10 minutes at room temperature. After staining, the plates were washed with 1% acetic acid and air dried. Bound stain was subsequently solubilized with 10 mM trizma base, and the absorbance was read on an automated plate reader at a wavelength of 515 nm.

[6] = system: p21; experiment: Immunofluorescence staining of p21 in 786-O cells (FIG. 5); type: cell-based, human; conditions: 10 μM, 24 h, confocal microscopy
Method: FIG. 5. […] 786-O cells were grown to confluence on 8-well chamber slides and treated with either Compound 2288 at 10 μM concentration or vehicle (DMSO) for 24 h. Immunofluorescence staining of p21 was visualized by confocal microscopy as described in Materials and Methods. p21 is green and the nuclear dye (DAPI) is blue. The experiment shown is representative of at least 3 separate experiments.
After appropriate treatments in 8 well chamber slides. immunofluorescence was conducted as described previously.^19 Briefly, the cells were fixed in 2% paraformaldehyde and blocked in the blocking buffer. After blocking, the cells were incubated with appropriate antibody, incubated with anti-mouse or anti-rabbit IgG (H+L), F(ab′)2 Fragment (Alexa Fluor® 488 Conjugate), and coverslipped with vectashield with DAPI. The specimens were examined by confocal microscopy.

[7] = system: p21 mRNA; experiment: Reverse transcriptase-PCR of p21 mRNA in 786-O cells (FIG. 3A); type: cell-based, human; conditions: 10 μM, RT-PCR
Method: (§2) FIG. 3. […] 786-O cells were grown to confluence in 10% serum containing media and: (A) treated with Compound 2288 at 10 μM concentration or vehicle (DMSO) for the indicated time. mRNA was isolated and RT-PCR was performed as described in Materials and Methods. GAP DH is a loading control. (B) exposed to CHX (35 μM), Compound 2288 (10 μM). CHX (10 μg/ml) and Compound 2288 (10 μM), or vehicle (DMSO) for the indicated times and immunoblotting was performed with the antibodies indicated. β-actin is a loading control. The experiments shown are representative of at least 3 separate experiments.
Total mRNA was collected and cDNA synthesized using a Qiagen RNeasykit (Valencia, Calif.) following manufacture's protocol. The PCR primers used are 5′-[…]-3′ (p21 sense), 5′-[…]-3′ (p21 antisense), 5′-[…]-3′ (GAPDH sense), and 5′-[…]-3′ (GAPDH antisense). Reverse-transcribed cDNA was subjected to 40 cycles. Thermal cycling conditions are as follows: denaturation for 30 seconds at 94° C. annealing for 30 seconds at 56.5° C. and elongation for 1 minute at 72° C. DNA was analyzed by 2% ethidium bromide agarose gel electrophoresis.

[8] = system: p21; experiment: p21 protein stability with CHX, immunoblotting in 786-O cells (FIG. 3B); type: cell-based, human; conditions: 10 μM with CHX
Method: as §2, §1

[9] = target: T2, Raf-1 (Homo sapiens, UniProt P04049); experiment: Recombinant Raf kinase inhibition (ADP-Glo Kinase Assay), Raf-1; type: biochemical; conditions: 10 nM Raf kinase, 1 μM MEK-1, 10 μM ATP, 22° C., 1 hour
T2 construct: Full length recombinant Raf-I and b-Raf (V600E) kinases; purchased US Biological (Swampscott, Mass.)
Method: (§3) All assays were performed using 10 nM Raf kinase, 1 μM MEK-1, 10 μM ATP, at 22° C. for 1 hour. Inhibitors were dissolved in DMSO and IC50 values were obtained by measuring the change in the ADP production (luminescent signal intensity) at various inhibitor concentrations as compared to the control. Individual data sets were performed in duplicate and each IC50 value was determined from three separate experiments. The data were fit to a saturation curve using KaleidaGraph graphing program (Synergy Software) to determine the IC50 values.

[10] = target: T3, b-Raf (V600E) (Homo sapiens, UniProt P15056, V600E); experiment: Recombinant Raf kinase inhibition (ADP-Glo Kinase Assay), b-Raf (V600E); type: biochemical; conditions: 10 nM Raf kinase, 1 μM MEK-1, 10 μM ATP, 22° C., 1 hour
T3 construct: Full length recombinant Raf-I and b-Raf (V600E) kinases; purchased US Biological (Swampscott, Mass.)
Method: as §3

T3 sequence (P15056 whole entry V600E): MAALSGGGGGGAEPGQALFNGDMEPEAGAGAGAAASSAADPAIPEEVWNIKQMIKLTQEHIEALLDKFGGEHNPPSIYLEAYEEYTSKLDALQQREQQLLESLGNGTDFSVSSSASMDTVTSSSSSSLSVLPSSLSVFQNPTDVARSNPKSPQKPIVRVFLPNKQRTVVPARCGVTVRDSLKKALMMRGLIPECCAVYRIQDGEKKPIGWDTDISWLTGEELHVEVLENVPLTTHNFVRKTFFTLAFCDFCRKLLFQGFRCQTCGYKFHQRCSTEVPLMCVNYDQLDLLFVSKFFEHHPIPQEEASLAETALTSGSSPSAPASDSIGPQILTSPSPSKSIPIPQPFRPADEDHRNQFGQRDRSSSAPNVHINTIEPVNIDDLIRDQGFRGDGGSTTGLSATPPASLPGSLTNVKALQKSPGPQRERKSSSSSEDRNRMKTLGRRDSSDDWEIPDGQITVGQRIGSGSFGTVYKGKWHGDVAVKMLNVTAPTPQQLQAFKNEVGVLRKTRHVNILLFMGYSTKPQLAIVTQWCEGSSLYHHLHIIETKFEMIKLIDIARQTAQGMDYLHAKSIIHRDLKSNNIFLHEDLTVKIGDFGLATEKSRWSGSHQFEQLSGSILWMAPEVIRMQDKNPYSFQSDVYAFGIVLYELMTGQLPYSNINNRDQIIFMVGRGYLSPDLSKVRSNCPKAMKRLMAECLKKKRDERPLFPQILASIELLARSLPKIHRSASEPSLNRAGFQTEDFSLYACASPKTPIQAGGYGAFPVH

Row | SMILES | p21 inhibition [2] | also measured
1 | CNC(=O)c1cc(O[C@H]2CC[C@@H](NC(=O)Nc3ccc(Cl)c(C(F)(F)F)c3)CC2)ccn1 [Compound 2319] | + | IC50 [1]: 0.5 nM
2 | CNC(=O)c1ccc(O[C@H]2CC[C@H](NC(=O)NC34CC5CC(CC(C5)C3)C4)CC2)cc1 [Compound 2225] | − | 
3 | CCN(CC)C(=O)c1cc(O[C@H]2CC[C@H](NC(=O)Nc3ccc(OC(F)(F)F)cc3)CC2)ccn1 [Compound 2577] | + | 
4 | CNC(=O)c1cc(Oc2ccc(NC(=O)Nc3ccc(Cl)c(C(F)(F)F)c3)cc2)ccn1 [Sorafenib, reference compound] | + | p21 inhibition (reported) [3]: potent and stable p21 inhibitor
5 | N#Cc1ccc(O[C@H]2CC[C@H](NC(=O)Nc3ccc(Cl)c(C(F)(F)F)c3)CC2)cc1 [Compound 2182] | + | 
6 | O=C(Nc1ccc(OC(F)(F)F)cc1)N[C@H]1CC[C@H](Oc2ccnc(C(=O)N3CCCC3)c2)CC1 [Compound 2578] | − | 
7 | N#Cc1ccc(O[C@H]2CC[C@H](NC(=O)Nc3ccc(C(F)(F)F)cc3)CC2)cc1 [Compound 2579] | + | 
8 | O=C(Nc1ccc(OC(F)(F)F)cc1)N[C@H]1CC[C@H](Oc2ccc(C(=O)O)cc2)CC1 [Compound 1728] | − | 
9 | N#Cc1ccc(O[C@H]2CC[C@H](NC(=O)Nc3ccc(OC(F)(F)F)cc3)CC2)cc1 [Compound 2581] | + | 
10 | CCC(=O)N1CCC(NC(=O)Nc2ccc(OC(F)(F)F)cc2)CC1 [Compound 1770] | − | 
11 | O=C(Nc1ccc(Cl)c(C(F)(F)F)c1)N[C@H]1CC[C@H](Oc2ccc(C(F)(F)F)cn2)CC1 [Compound 2288] | + | levels of other proteins (p-Akt, p-ERK, t-Akt, t-ERK, p53) [4]: not levels of other proteins; p21 protein level [4]: consistently decreases p21 protein level; cancer cell growth [5]: inhibits cancer cell growth; IC50 [1]: 0.5 nM; cytosolic p21 [6]: decreases cytosolic p21; p21 mRNA expression [7]: decreases p21 mRNA expression; p21 protein stability [8]: no effect on p21 protein stability
12 | CNC(=O)c1cc(O[C@H]2CC[C@H](NC(=O)Nc3ccc(OC(F)(F)F)cc3)CC2)ccn1 [Compound 2575] | − | 
13 | O=C(NC12CC3CC(CC(C3)C1)C2)N[C@H]1CC[C@H](Oc2ccc(C(=O)O)cc2)CC1 [Compound 1471] | − | 
14 | CNC(=O)c1cc(Oc2ccc(NC(=O)Nc3ccc(OC(F)(F)F)cc3)cc2)ccn1 [Compound 2576] | + | IC50 [9]: 30 nM; IC50 [1]: 0.5 nM
15 | CNC(=O)c1ccc(OC2CCC(NC(=O)Nc3ccc(Cl)c(C(F)(F)F)c3)CC2)cn1 (stereo not shown) [Compound 2316] | + | IC50 [9]: 175 ± 20 nM; IC50 [1]: 0.5 nM; IC50 [10]: 200 ± 150 nM
16 | CCN(CC)C(=O)c1cc(O[C@H]2CC[C@H](NC(=O)Nc3ccc(Cl)c(C(F)(F)F)c3)CC2)ccn1 [Compound 2574] | + | 
17 | CS(=O)(=O)N1CCC(NC(=O)Nc2ccc(OC(F)(F)F)cc2)CC1 [Compound 1709] | − | 
18 | CNC(=O)c1ccc(O[C@H]2CC[C@H](NC(=O)Nc3ccc(OC(F)(F)F)cc3)CC2)cc1 [Compound 2227] | − | 
19 | CCC(=O)N1CCC(NC(=O)NC23CC4CC(CC(C4)C2)C3)CC1 [Compound 1163] | − | 
20 | CNC(=O)c1ccc(O[C@H]2CC[C@H](NC(=O)Nc3ccc(Cl)c(C(F)(F)F)c3)CC2)cc1 [Compound 2253] | − | IC50 [9]: 340 ± 40 nM; IC50 [1]: 0.5 nM; IC50 [10]: > 10000 nM
21 | CNC(=O)c1cc(O[C@H]2CC[C@H](NC(=O)Nc3ccc(Cl)c(C(F)(F)F)c3)CC2)ccn1 [Compound 2278] | + | 
22 | O=C(Nc1ccc(Cl)c(C(F)(F)F)c1)N[C@H]1CC[C@H](Oc2ccc(C(=O)O)cc2)CC1 [Compound 2221] | − | IC50 [9]: 4300 ± 400 nM
